Values quoted from earlier work in patent US6998112B2, “Sleep inducing toothpaste made with natural herbs and a natural hormone” (priority 2003, dated 2006).

Details: in vivo

Melatonin
adverse effects: isolated reports of exacerbation of depression and fatigue
